Measurements published in PMC11360180, “Enhancement of Antimicrobial Function by L/D-Lysine Substitution on a Novel Broad-Spectrum Antimicrobial Peptide, Phylloseptin-TO2: A Structure-Related Activity Research Study” (Pharmaceutics, 2024).
Where two headings read alike, the source gives them in different places. Where a SMILES comes first, the peptide text is derived from it. Where no end group is shown, it is not given here. [ ]: non-standard residue; d: D form.

Key:
S. aureus (ATCC 6538) [1] = format: cell-based, Staphylococcus aureus; conditions: ATCC 6538, 24 h
Source text: (§1) Seven microorganism strains were used to preliminarily evaluate the antimicrobial activity of PSTO2 and its analogues, including Staphylococcus aureus (S. aureus) (ATCC® 6538), methicillin-resistant Staphylococcus aureus (MRSA) (NCTC® 12493), Enterococcus faecalis (E. faecalis) (NCTC® 12697), E. coli (ATCC® 8739), Klebsiella pneumonia (K. pneumonia) (ATCC® 43816), Pseudomonas aeruginosa (P. aeruginosa) (ATCC® CRM 9027), Acinetobacter baumanni (A. baumanni) (BAA® 747), and Candida albicans (C. albicans) (ATCC® 10231). In this study, the strains were cultured in Mueller–Hinton broth (MHB), nutrient broth (NB), and yeast–peptone–dextrose broth (YPD-B) correspondingly at 37 °C, with shaking at 120 rpm. Each peptide was dissolved from 128 μM to 1 μM and mixed with the bacterium at 5 × 10^5 CFU/mL. In this process, bacteria with culture medium were used as the growth control group; PBS was set up as the vehicle control group; sterile culture medium was used as the blank control group; and Norfloxacin at a concentration of 2 mg/mL and amphotericin B at a concentration of 1 mg/mL were set up as the positive control group for bacteria and fungi, respectively.
(§2) After being incubated for 24 h, a Synergy HT plate reader (Bio-Tek, Shoreline, WA, USA) was used to detect the absorbance of each well in the 96-well plate at λ = 550 nm. The concentration at which no visible turbidity could be recorded was the MIC value. Beginning from the MIC value, 10 µL of solution in each clear well was dropped on the sterile agar plates. The plate was checked the next day for colony formation, and the lowest concentration at which no colony growing was recorded as an MBC value.

MRSA (NCTC 12493) = format: cell-based, methicillin-resistant Staphylococcus aureus; conditions: NCTC 12493, 24 h
Source text: as §1, §2

E. coli (ATCC 8739) = format: cell-based, Escherichia coli; conditions: ATCC 8739, 24 h
Source text: as §1, §2

A. baumannii (BAA 747) = format: cell-based, Acinetobacter baumanni; conditions: BAA 747, 24 h
Source text: as §1, §2

[2] = tested on: K. pneumonia (ATCC 43816); format: cell-based, Klebsiella pneumonia; conditions: ATCC 43816, 24 h
Source text: as §1, §2

[3] = tested on: P. aeruginosa (ATCC 9027); format: cell-based, Pseudomonas aeruginosa; conditions: ATCC 9027, 24 h
Source text: as §1, §2

C. albicans = format: cell-based, Candida albicans; conditions: 24 h
Source text: as §1, §2

[4] = tested on: S. aureus (ATCC 6538) biofilm; format: cell-based, Staphylococcus aureus; conditions: ATCC 6538, 24 h
Protocol: (§3) To test the anti-biofilm ability of PSTO2 and its analogues, three types of microorganisms (S. aureus ATCC® 6538, E. coli ATCC® 8739, and MRSA NCTC® 12493) were chosen. Tryptic soy broth (TSB) and Lysogeny broth (LB) were used to culture microorganisms. The peptide was dissolved in an autoclaved PBS solution and diluted into concentrations ranging from 51,200 µM to 100 µM. One µL of peptide solution of each concentration was added into a 96-well plate with 100 µL bacterium at 5 × 10^5 CFU/mL. The plate was incubated at 37 °C for 24 h, with shaking at 200 rpm. After overnight incubation, the planktonic bacteria were washed up. Then, 100 µL of methanol was used to fix the biofilms onto the bottom, and 100 µL of 0.1% crystal violet solution (Sigma-Aldrich, Gillingham, UK) was added to each well to stain the biofilms. After drying, 160 µL of acetic acid (30% in deionised water, Sigma-Aldrich, UK) was added to each well to dissolve the shaded parts. The absorbance was detected with the Synergy HT plate reader at λ = 595 nm.
(§4) For the MBEC assay, 100 µL of the bacterium of 5 × 10^5 CFU/mL was transferred into an empty 96-well plate, and the plate was incubated at 37 °C for 24 h to obtain the biofilms primarily. Then, the peptide solution from 512 µM to 1 µM was transferred into a corresponding well, followed by 24 h incubation at 37 °C, with shaking at 200 rpm. After this, the plate was handled using the identical method to the plate in the MBIC assay, and the absorbance of each well was detected with the Synergy HT plate reader at λ = 595 nm. The minimum concentration at which the peptide can eradicate the existing biofilm was recorded as the MBEC value.

[5] = tested on: E. coli (ATCC 8739) biofilm; format: cell-based, Escherichia coli; conditions: ATCC 8739, 24 h
Protocol: as §3, §4

S. aureus (ATCC 6538) [6] = format: cell-based, Staphylococcus aureus; conditions: ATCC 6538, 24 h; remark: listed apart in the source
Source text: as §1, with “In this process, bacteria with culture medium were used as the growth control group; PBS was set up as the vehicle control group; sterile culture medium was used as the blank control group; and Norfloxacin at a concentration of 2 mg/mL and amphotericin B at a concentration of 1 mg/mL were set up as the positive control group for bacteria and fungi, respectively.” left out
as §2, with “value. […]” for “value. Beginning from the MIC value, 10 µL of solution in each clear well was dropped on the sterile agar plates.”, “value. […]” for “value.”

Question: What does the source list for `CC[C@H](C)[C@H](NC(=O)[C@H](C)NC(=O)[C@@H](CCCCN)NC(=O)[C@@H]1CCCN1C(=O)[C@@H](NC(=O)[C@H](CC(C)C)NC(=O)[C@H](CO)NC(=O)[C@H](CC(C)C)NC(=O)[C@@H](N)Cc1ccccc1)[C@@H](C)CC)C(=O)N[C@@H](CCCCN)C(=O)N[C@@H](C)C(=O)N[C@H](C(=O)N[C@@H](CCCCN)C(=O)N[C@@H](C)C(=O)N[C@@H](CC(C)C)C(=O)N[C@@H](C)C(=O)N[C@@H](CCCCN)C(=O)N[C@H](CCCCN)C(=O)N[C@@H](CC(C)C)C(N)=O)C(C)C` [SR2D10] (H-FLSLIP[dK]AIKAVKALAK[dK]L-NH2)?
Answer: MBC (S. aureus (ATCC 6538) [1]): 1/1 μM; MBC (MRSA (NCTC 12493)): 1/1 μM; MBC (E. coli (ATCC 8739)): 2 µM; MIC (E. coli (ATCC 8739)): 2 µM; MBC (A. baumannii (BAA 747)): 16/16 μM; MIC (A. baumannii (BAA 747)): 16/16 μM; MBC [2]: 4 µM; MIC [2]: 4 µM; MBC [3]: 32 µM; MIC [3]: 32 µM; MBC (C. albicans): 128 µM; MIC (C. albicans): 64 µM; MBEC [4]: 32 µM; MBIC [4]: 4 µM; MBEC [5]: 64 µM; MBIC [5]: 32 µM

Question: Which MBC (S. aureus (ATCC 6538) [1]) does the source give for `CC[C@H](C)[C@H](NC(=O)[C@H](C)NC(=O)[C@@H](CCCCN)NC(=O)[C@@H]1CCCN1C(=O)[C@@H](NC(=O)[C@H](CC(C)C)NC(=O)[C@H](CO)NC(=O)[C@H](CC(C)C)NC(=O)[C@@H](N)Cc1ccccc1)[C@@H](C)CC)C(=O)N[C@@H](CCCCN)C(=O)N[C@@H](C)C(=O)N[C@H](C(=O)N[C@@H](CO)C(=O)N[C@@H](C)C(=O)N[C@@H](CC(C)C)C(=O)N[C@@H](C)C(=O)N[C@@H](CCCCN)C(=O)N[C@@H](CCCCN)C(=O)N[C@@H](CC(C)C)C(N)=O)C(C)C` [SRD7] (H-FLSLIP[dK]AIKAVSALAKKL-NH2) here?
Answer: 1/1 μM

Question: What about the MBC (MRSA (NCTC 12493)) of the same compound?
Answer: 2 µM

Question: What about the MIC (MRSA (NCTC 12493)) of the same compound?
Answer: 1 µM

Question: And the MBC (E. coli (ATCC 8739))?
Answer: 2 µM

Question: And the MIC (E. coli (ATCC 8739))?
Answer: 2 µM

Question: And the MBC (A. baumannii (BAA 747))?
Answer: 16/16 μM

Question: What about the MBC [3] of the same compound?
Answer: 16 µM

Question: And the MIC [3]?
Answer: 16 µM

Question: What about the MBC (C. albicans) of the same compound?
Answer: 64 µM

Question: And the MIC (C. albicans)?
Answer: 32 µM

Question: And the MBEC [4]?
Answer: 32 µM

Question: And the MBIC [4]?
Answer: 2 µM

Question: And the MBEC [5]?
Answer: 64 µM

Question: What about the MBIC [5] of the same compound?
Answer: 32 µM

Question: What does the source list for FLSLIPKAIKAVKALAKKL-NH2 [SR2]?
Answer: MBC (S. aureus (ATCC 6538) [1]): 2 µM; MIC (S. aureus (ATCC 6538) [1]): 2 µM; MBC (MRSA (NCTC 12493)): 2 µM; MIC (MRSA (NCTC 12493)): 2 µM; MBC (E. coli (ATCC 8739)): 2 µM; MIC (E. coli (ATCC 8739)): 2 µM; MBC (A. baumannii (BAA 747)): 2/2 μM; MBC [2]: 2 µM; MIC [2]: 2 µM; MBC [3]: 32 µM; MBC (C. albicans): 64 µM; MIC (C. albicans): 32 µM; MBEC [4]: 16 µM; MBIC [4]: 2 µM; MBEC [5]: 16 µM; MBIC [5]: 8 µM; MBC (S. aureus (ATCC 6538) [6]): 2 µM; MIC (S. aureus (ATCC 6538) [6]): 2 µM

Question: What does the source list for FLSLIPKAIKAVSALAKKL-NH2 [SR]?
Answer: MBC (S. aureus (ATCC 6538) [1]): 2 µM; MIC (S. aureus (ATCC 6538) [1]): 2 µM; MBC (MRSA (NCTC 12493)): 2 µM; MIC (MRSA (NCTC 12493)): 2 µM; MBC (E. coli (ATCC 8739)): 2 µM; MIC (E. coli (ATCC 8739)): 2 µM; MBC (A. baumannii (BAA 747)): 4/4 μM; MBC [2]: 2 µM; MIC [2]: 2 µM; MBC [3]: 32 µM; MBC (C. albicans): 128 µM; MIC (C. albicans): 32 µM; MBEC [4]: 16 µM; MBEC [5]: 16/16 μM; MBIC [5]: 16/16 μM
